Experimental data reported in paper PMC8847695 (Frontiers in Chemistry, 2022).

Experiments:
Assay type in all cases: binding
Conditions in all cases: 1 = hit, 0 = no hit
IDO1 (1-435) = target: T1, IDO1 (1-435) (Homo sapiens, UniProt P14902); experiment: STD-NMR fragment screening, IDO1
T1 construct: His-tag of pET15b with TEV site (thrombin site replaced) (cleaved yes); made in house; host or cells: E. coli Rosetta 2 (DE3) pLysS
Protocol: (§1) All fragments were stored at −20°C as solids in argon flushed glass bottles. For NMR screening, fragments were weighed and dissolved in DMSO-d6 to a stock concentration of 300 mM. Mother plates were prepared with a 100 mM concentration. From these plates, daughter plates were prepared with the fragments mixed in the plates to a concentration of 50 mM for each fragment. Daughter plates were opened a maximum of eight times. The plates were argon flushed and sealed with a HT121TS (HTA) and Foil Heat Seal (Biozym).
(§2) For long time measurements, like the protein ^1H NMR spectrum, the buffer exchange was performed twice to reduce residual buffer peaks. All experiments were performed on a Bruker Avance III HDX 700 instrument, equipped with a 5 mm Prodigy TCI cryo-probehead. For every protein, a standard ^1H NMR experiment with 1 k scans and water suppression through presaturation was performed. […] The on-resonance frequency, which was determined from the ^1H NMR spectra of the protein, was between 0.5 and 0.6 ppm; 40 ppm was used as the off-resonance frequency. For an interleaved acquisition of the on- and off-resonance, a pseudo-2D scheme was applied. The saturation was done by Gaussian pulses with a length of 50 ms and 60 dB of attenuation, with an interpulse delay of 1 ms leading to an excitation bandwidth of about 42 Hz. The screening was done with 16 scans of on- and off-resonance scans each, with a 3 s saturation time. The samples contained final concentrations of 20 µM protein, 10% (^V/V) DMSO-d6, and 1 mM of each of the two fragments. A ^1H-NMR experiment was performed for each compound to act as a reference spectrum in the STD experiments. All NMR experiments were carried out at 25°C.
(§3) Fifteen of these compounds contain the same halogen twice. No compound bears mixtures of different halogen atoms. Four proteins (AAK1, CAMK1G, IDO1, and DOT1L) were screened against this HEFLib using STD-NMR. A fragment was considered a hit if the peak intensity in the difference spectrum was three times higher than the local background noise. […] Chemical compatibility and peak complementarity were assured for these mixtures. Samples containing more than two fragments were avoided to minimize the possible target competition and to decrease the risk of fragment interactions. […] The ^1H reference NMR spectrum of the mixture is shown in red for comparison. […] As fragment mixtures can lead to competitive effects between their fragments, it is not advised to use the quantification of peak mixtures for hit ranking.

DOT1L (1-416) = target: T2, DOT1L (1-416) (Homo sapiens, UniProt Q8TEK3); experiment: STD-NMR fragment screening, DOT1L
T2 construct: made in house; host or cells: E. coli BL21 (DE3) pLysS
T2 sequence (Q8TEK3 1-416): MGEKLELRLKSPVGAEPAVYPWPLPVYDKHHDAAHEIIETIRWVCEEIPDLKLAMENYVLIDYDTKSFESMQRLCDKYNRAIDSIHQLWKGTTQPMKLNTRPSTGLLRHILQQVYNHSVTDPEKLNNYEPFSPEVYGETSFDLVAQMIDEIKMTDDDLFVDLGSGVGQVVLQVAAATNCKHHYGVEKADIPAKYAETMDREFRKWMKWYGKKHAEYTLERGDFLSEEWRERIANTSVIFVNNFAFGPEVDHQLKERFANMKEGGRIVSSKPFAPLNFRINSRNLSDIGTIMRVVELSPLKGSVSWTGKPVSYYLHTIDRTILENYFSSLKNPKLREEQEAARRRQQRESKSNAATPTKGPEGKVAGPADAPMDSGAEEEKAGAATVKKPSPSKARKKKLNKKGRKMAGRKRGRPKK
Protocol: as §1, §2, §3

AAK1 (121-471) = AAK1 (121-471) (Homo sapiens, UniProt Q2M2I8); experiment: STD-NMR fragment screening, AAK1
AAK1 (121-471), sequence (Q2M2I8 46-315 limits assumed): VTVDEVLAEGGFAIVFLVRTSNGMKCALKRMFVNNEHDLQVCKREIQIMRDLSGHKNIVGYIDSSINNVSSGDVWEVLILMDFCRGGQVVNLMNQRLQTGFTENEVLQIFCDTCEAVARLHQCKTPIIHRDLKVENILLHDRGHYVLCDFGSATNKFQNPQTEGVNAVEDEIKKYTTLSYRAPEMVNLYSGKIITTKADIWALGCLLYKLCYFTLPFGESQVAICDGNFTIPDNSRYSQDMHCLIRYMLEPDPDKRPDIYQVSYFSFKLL
Protocol: as §1, §2, §3

CAMK1G (1-320) = target: T3, CAMK1G (1-320) (Homo sapiens, UniProt Q96NX5); experiment: STD-NMR fragment screening, CAMK1G
T3 construct: made in house; host or cells: E. coli BL21 (DE3) pLysS
T3 sequence (Q96NX5 1-320): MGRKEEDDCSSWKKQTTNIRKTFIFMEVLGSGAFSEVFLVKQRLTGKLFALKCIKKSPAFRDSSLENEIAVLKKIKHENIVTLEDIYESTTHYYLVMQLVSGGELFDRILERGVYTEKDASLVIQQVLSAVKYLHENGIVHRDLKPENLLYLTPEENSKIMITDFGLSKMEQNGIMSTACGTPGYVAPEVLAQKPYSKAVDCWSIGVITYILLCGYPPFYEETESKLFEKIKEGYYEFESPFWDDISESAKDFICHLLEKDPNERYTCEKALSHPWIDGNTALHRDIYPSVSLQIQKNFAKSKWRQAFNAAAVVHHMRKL
Protocol: as §1, §2, §3

T1 sequence (P14902 whole entry, the tested form may be a part): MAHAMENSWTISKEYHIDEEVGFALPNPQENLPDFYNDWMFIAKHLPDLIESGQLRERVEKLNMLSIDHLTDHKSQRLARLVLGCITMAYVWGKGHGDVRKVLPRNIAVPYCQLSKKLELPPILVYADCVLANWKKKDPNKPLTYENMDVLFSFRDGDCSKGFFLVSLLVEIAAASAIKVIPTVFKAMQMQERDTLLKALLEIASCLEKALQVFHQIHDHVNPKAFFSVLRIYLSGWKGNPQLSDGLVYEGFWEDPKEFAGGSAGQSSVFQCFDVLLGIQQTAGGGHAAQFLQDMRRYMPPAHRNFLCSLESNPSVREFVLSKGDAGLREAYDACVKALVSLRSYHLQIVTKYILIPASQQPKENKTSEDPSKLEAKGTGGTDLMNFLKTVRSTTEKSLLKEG

SMILES | IDO1 (STD-NMR hit flag) (IDO1 (1-435)) | DOT1L (STD-NMR hit flag) (DOT1L (1-416)) | AAK1 (STD-NMR hit flag) (AAK1 (121-471)) | CAMK1G (STD-NMR hit flag) (CAMK1G (1-320))
NC(CCO)c1ccc(Cl)cc1Cl (stereo not drawn) [Fragment B02289594] | 0 | 0 | 0 | 0
CC(C)c1nsc(Cl)n1 [Fragment B02291237] | 0 | 0 | 0 | 0
Fc1cnccc1I [Fragment B02290473] | 0 | 0 | 1 | 1
Clc1ncnc2cc[nH]c12 [Fragment B02289595] | 0 | 0 | 1 | 1
O=c1cc(O)c(Cl)c[nH]1 [Fragment B02297427] | 1 | 0 | 0 | 0
Cc1[nH]c(=O)[nH]c(=O)c1I [Fragment B02297420] | 1 | 1 | 1 | 0
NC(=O)c1cc2c(nc1Cl)CCC2 [Fragment B02291222] | 0 | 0 | 0 | 0
Nc1ncc(Br)cc1CO [Fragment B02290475] | 0 | 0 | 1 | 1
Cn1ccc(Br)n1 [Fragment B02289620] | 1 | 0 | 0 | 0
N#Cc1ccnc(Cl)c1 [Fragment B02291271] | 0 | 0 | 0 | 0
O=C(O)c1cncc(Cl)n1 [Fragment B02289611] | 0 | 0 | 0 | 0
CN(N)c1ncc(C(F)(F)F)cc1Cl [Fragment B02290089] | 0 | 0 | 0 | 0
Oc1ccc(Cl)cc1/C=C/C12CN3CN(CN(C3)C1)C2 [Fragment B02291153] | 0 | 0 | 0 | 0
Brc1cnc(N2CCNCC2)nc1 [Fragment B02297422] | 0 | 0 | 1 | 1
Cc1nc(N)nc(Cl)c1Cl [Fragment B02291102] | 1 | 0 | 1 | 1
Nc1nc(Cl)nc2[nH]cnc12 [Fragment B02290476] | 0 | 0 | 0 | 0
O=C(c1cc(Br)c[nH]1)N1CCOCC1 [Fragment B02290115] | 0 | 0 | 0 | 1
O=S(=O)(CCO)c1n[nH]c(Cl)n1 [Fragment B02290402] | 0 | 0 | 0 | 0
Cc1nn(CCO)c(N)c1I [Fragment B02291250] | 0 | 0 | 0 | 1
Clc1cnccn1 [Fragment B02291240] | 0 | 0 | 0 | 0
COCn1nc(Br)[nH]c1=O [Fragment B02290404] | 0 | 0 | 0 | 0
COc1cc(OC)nc(Cl)n1 [Fragment B02291246] | 1 | 0 | 1 | 0
Cn1nc(Br)c(C(=O)NCC(=O)O)c1N [Fragment B02291252] | 0 | 0 | 1 | 0
Cn1ncc(I)c1C(=O)NN [Fragment B02297766] | 0 | 0 | 0 | 0
Cn1ncc(Br)c1C(=O)O [Fragment B02290116] | 1 | 0 | 0 | 0
Cn1c2nc(Cl)nc-2c(O)n(C)c1=O [Fragment B02291216] | 1 | 0 | 1 | 1
Nc1nn(CC(=O)O)cc1Br [Fragment B02291156] | 0 | 0 | 0 | 0

Continued, values first:

IDO1 (STD-NMR hit flag) (IDO1 (1-435)) | DOT1L (STD-NMR hit flag) (DOT1L (1-416)) | AAK1 (STD-NMR hit flag) (AAK1 (121-471)) | CAMK1G (STD-NMR hit flag) (CAMK1G (1-320)) | SMILES
0 | 0 | 0 | 0 | OB(O)c1ccc(Cl)nc1F [Fragment B02289599]
0 | 0 | 0 | 0 | Brc1cccc2c1CNC2 [Fragment B02291212]
0 | 0 | 1 | 0 | Oc1cccc(O)c1Br [Fragment B02297401]
0 | 0 | 0 | 1 | Nc1ccc2[nH]nc(Br)c2c1 [Fragment B02289605]
0 | 0 | 1 | 1 | Clc1n[nH]c2ccccc12 [Fragment B02291265]
0 | 0 | 0 | 0 | Oc1coc(O)c1Br [Fragment B02291100]
0 | 0 | 0 | 0 | O=C(O)c1ccc(Cl)c(O)c1 [Fragment B02289615]
0 | 0 | 0 | 0 | O=C(O)c1ccncc1Br [Fragment B02297426]
0 | 0 | 0 | 0 | O=C1Nc2cccc(Cl)c2C1=O [Fragment B02291255]
0 | 0 | 0 | 0 | O=C(O)c1ccnc(Cl)c1 [Fragment B02291239]
0 | 0 | 0 | 0 | O=c1[nH]cnc(O)c1Br [Fragment B02289618]
0 | 0 | 1 | 0 | Nc1ccc2[nH]cnc2c1Br [Fragment B02297409]
0 | 0 | 0 | 0 | O=C1Nc2c(Cl)cccc2C1=O [Fragment B02290467]
0 | 0 | 0 | 0 | O=C(O)c1ccc(Cl)cn1 [Fragment B02289602]
0 | 0 | 0 | 0 | Nc1ccc(Br)c(C(=O)O)n1 [Fragment B02297395]
